From patent US9896423B2, “Deuterium substituted 1-[2-(2,4-dimethyl-phenylsulfanyl)-phenyl]piperazine compound or derivatives thereof, and pharmaceutical composition and use thereof” (Jiangsu Jibeier Pharmaceutical Co. Ltd., priority 2014, dated 2018)
Where “and” joins values, the source holds several entries; their conditions need not be identical. Equal values may be shown once. Where a name gives a salt, the structure may show the parent alone. Read-outs that look alike come from different tables or passages of the source.

Tests used:
Male ICR mice = experiment: Mice swimming test; format: in vivo; details: for effect on length of time that the mice stopped swimming vs blank control: two successive weeks; for Duration without Movement within the Last 4 min of the Whole 6 min: mice, gavage once a day for 14 days, n = 10, x ± s
Description: The following method is used for testing the antidepression effect of the compound of the present application. ICR mice or SD rats, gavaged for two successive weeks, were subjected to mice swimming test, mice tail suspension test and rats swimming test. See below for details of the tests and results.
Male ICR mice weighing 18 g to 20 g were used. They were fed on sterilized standard feed.
The compound administered in the test was 1-{2-[2,4-bis(trideuteriomethyl)phenylsulfanyl]phenyl}piperazine hydrobromic acid salt (XX for short). Vortioxetine (YY for short) was used as a control sample. Venlafaxine HCl (from Wyeth, USA) was used as a positive control.
Vortioxetine (15 mg) was combined with 10% hydroxypropyl-β-cyclodextrin to form a solution of 100 mL and was administered at daily dose of 3 mg/kg. 1-{2-[2,4-bis(trideuteriomethyl)phenylsulfanyl]phenyl}piperazine hydrobromic acid salt (15 mg and 7.5 mg) was combined with 10% hydroxypropyl-β-cyclodextrin to form two solutions of 100 mL and was administered at daily doses of 3 mg/kg and 1.5 mg/kg, respectively. Venlafaxine HCl (75 mg) was combined with 0.5% CMC-Na to form a solution of 100 mL and was administered at daily dose of […].
A recording and analysis system for small-animal behavior (Noldus) was used.
All the eighty mice were subjected to prescreening one day before the administration. The mice, fasted for 4 hours were put in a round glass tank (ø 14 cm×h 20 cm, with water of 10 cm depth and at a temperature of 25° C.) to swim. […] The whole swimming course was recorded by the video and the data were collected and analyzed automatically by Noldus software.
The forty qualified mice were divided into 4 groups, each of which had 10 mice, according to the Excel random grouping.
The medicaments were administered to each group by gavage with the amount of 0.2 ml per 10 g of body weight, once a day for 14 successive days. One hour later after the last oral administration, the mice were allowed to swim for 6 min. The video recorded the whole swimming course, and the Noldus software automatically collected and analyzed the data.
The data was given as “average±standard deviation” (x±s). One-way analysis of variance (one-way ANOVA) was used for data difference statistics. Differences among the groups were determined by P<0.05.

[1] = Pharmacokinetic test in rats, intravenous injection; format: in vivo, SD rats; details: 2 mg/kg iv; for concentration at 0.05 h / concentration at 0.133 h / concentration at 4 h / concentration at 6 h / concentration at 9 h / concentration at 12 h / concentration at 24 h: male, SD, rat, plasma, intravenous, 2 mg/kg
Protocol: The preferred compound of the present disclosure was assessed in rats for its pharmacokinetic profile.
SD rats, male and female, weighing 150 to 250 g
Mobile phase: 10 mM ammonium formate aqueous solution:methanol=15:85
The ionization source was electrospray ionization source. The detection mode was positive mode. Multiple reaction monitoring (MRM) was used as the scanning mode. The ion reaction for the quantitative analysis was the following: m/z was 305.2\150.0 for XX, and 256.1\167.1 for diphenhydramine (the internal standard).
Four male SD rats were taken. The dosage was calculated as 5 mL/kg body weight and 2 mg/kg. XX or YY was dissolved in DMSO (3% of a total volume) and castor oil (3% of the total volume) was added to the solution, followed by agitating with a vortex mixer. Subsequently, saline was added to the mixture to the total volume to afford the intravenous injection for the rats. The injections were intravenously administered to four male SD rats. Blood from the rats' orbits was collected 3 min, 8 min, 15 min, 30 min, 1 hr, 2 hr, 3 hr, 4 hr, 6 hr, 9 hr, 12 hr and 24 hr later after the injection, respectively.
After the blood collection, the tubes were immediately gently turned upside down at least five times to ensure sufficient mixing, and placed on ice. Heparin was added for anticoagulation. The samples were centrifuged at 8000 rpm for 5 min to separate serum from erythrocyte. The serum was transferred with a pipettor to 2 mL polypropylene (PP) tubes, which were marked with the name of the compound and the time points, and stored in a refrigerator at −40° C. before LC-MS analysis. Samples with high concentrations were diluted with rat blank plasma.
2.5 μL of Meth-H2O and 5 μL of the internal standard solution (20 ng/mL, IS) were added to 50 μL of the plasma. Subsequently, 150 μL of methanol was added to the mixture to precipitate protein and the samples were then centrifuged at 13000 rpm for 5 min. The upper organic phase was taken out, filtrated with a 0.22 μM microporous membrane, and 2 μL of the sample was injected for the LC-MS analysis.

[2H]C([2H])([2H])c1ccc(Sc2ccccc2N2CCNCC2)c(C([2H])([2H])[2H])c1 [XX, 1-{2-[2,4-bis(trideuteriomethyl)phenylsulfanyl]phenyl}piperazine hydrobromic acid salt]
effect on length of time that the mice stopped swimming vs blank control (Male ICR mice; 1.5 mg/kg gavage): markedly shortened | effect on length of time that the mice stopped swimming vs blank control (Male ICR mice; 3 mg/kg gavage): markedly shortened | Duration without Movement within the Last 4 min of the Whole 6 min (Male ICR mice; 1.5 mg/kg): 173.4 ± 36.1 s | Duration without Movement within the Last 4 min of the Whole 6 min (Male ICR mice; 3 mg/kg): 176.3 ± 37.5 s | Concentrations in Plasma of Rats after Intravenous Injection ([1]; 0.05 h after administration, individual rats): 123.2 ng/mL and 127.2 ng/mL and 121.4 ng/mL | Concentrations in Plasma of Rats after Intravenous Injection ([1]; 0.133 h, individual rats): 89.0 ng/mL and 85.9 ng/mL and 86.8 ng/mL | Concentrations in Plasma of Rats after Intravenous Injection ([1]; 0.25 h, individual rats): 78.8 ng/mL and 77.3 ng/mL and 77.1 ng/mL | Concentrations in Plasma of Rats after Intravenous Injection ([1]; 0.5 h, individual rats): 76.9 ng/mL and 71.3 ng/mL and 75.8 ng/mL | Concentrations in Plasma of Rats after Intravenous Injection ([1]; 1 h, individual rats): 73.3 ng/mL and 68.6 ng/mL and 65.6 ng/mL | Concentrations in Plasma of Rats after Intravenous Injection ([1]; 2 h, individual rats): 69.5 ng/mL and 68.1 ng/mL and 54.4 ng/mL | Concentrations in Plasma of Rats after Intravenous Injection ([1]; 3 h, individual rats): 53.4 ng/mL and 49.8 ng/mL and 38.2 ng/mL | Concentrations in Plasma of Rats after Intravenous Injection ([1]; 4 h, individual rats): 38.5 ng/mL and 27.6 ng/mL and 25.1 ng/mL | Concentrations in Plasma of Rats after Intravenous Injection ([1]; 6 h, individual rats): 28.4 ng/mL and 25.8 ng/mL and 24.5 ng/mL | Concentrations in Plasma of Rats after Intravenous Injection ([1]; 9 h, individual rats): 16.1 ng/mL and 18.6 ng/mL and 14.1 ng/mL | Concentrations in Plasma of Rats after Intravenous Injection ([1]; 12 h, individual rats): 7.86 ng/mL and 7.50 ng/mL and 7.18 ng/mL | Concentrations in Plasma of Rats after Intravenous Injection ([1]; 24 h, individual rats): 2.57 ng/mL and 2.89 ng/mL and 3.68 ng/mL | concentration at 0.05 h ([1]; 0.05 h, mean, read-out: Concentrations in Plasma of Rats after Intravenous Injection, Mean ± SD): 126 ± 5.68 ng/mL | concentration at 0.05 h ([1]; 0.05 h after administration, individual rats, read-out: Concentrations in Plasma of Rats after Intravenous Injection): 134 ng/mL | concentration at 0.133 h ([1]; 0.133 h, individual rats, read-out: Concentrations in Plasma of Rats after Intravenous Injection): 86.5 ng/mL | concentration at 0.133 h ([1]; 0.133 h, mean, read-out: Concentrations in Plasma of Rats after Intravenous Injection, Mean ± SD): 87.1 ± 1.35 ng/mL | concentration at 4 h ([1]; 4 h, individual rats, read-out: Concentrations in Plasma of Rats after Intravenous Injection): 27.2 ng/mL | concentration at 4 h ([1]; 4 h, mean, read-out: Concentrations in Plasma of Rats after Intravenous Injection, Mean ± SD): 29.6 ± 6.03 ng/mL | concentration at 6 h ([1]; 6 h, individual rats, read-out: Concentrations in Plasma of Rats after Intravenous Injection): 25.8 ng/mL | concentration at 6 h ([1]; 6 h, mean, read-out: Concentrations in Plasma of Rats after Intravenous Injection, Mean ± SD): 26.1 ± 1.64 ng/mL | concentration at 9 h ([1]; 9 h, individual rats, read-out: Concentrations in Plasma of Rats after Intravenous Injection): 14.9 ng/mL | concentration at 9 h ([1]; 9 h, mean, read-out: Concentrations in Plasma of Rats after Intravenous Injection, Mean ± SD): 15.9 ± 1.96 ng/mL | concentration at 12 h ([1]; 12 h, individual rats, read-out: Concentrations in Plasma of Rats after Intravenous Injection): 8.44 ng/mL | concentration at 12 h ([1]; 12 h, mean, read-out: Concentrations in Plasma of Rats after Intravenous Injection, Mean ± SD): 7.75 ± 0.54 ng/mL | concentration at 24 h ([1]; 24 h, individual rats, read-out: Concentrations in Plasma of Rats after Intravenous Injection): 3.38 ng/mL | concentration at 24 h ([1]; 24 h, mean, read-out: Concentrations in Plasma of Rats after Intravenous Injection, Mean ± SD): 3.13 ± 0.5 ng/mL
